Experimental data published in patent publication US7465741B2, “C-substituted tricyclic isoxazoline derivatives and their use as anti-depressants” (Janssen Pharmaceutica N.V., priority 2002, dated 2008).
Where a name gives a salt, the structure may show the parent alone.

How the values were obtained:
hα2A receptor = target: T1, hα2A receptor (Homo sapiens, UniProt P08913); experiment: Radioligand binding experiment for hα2A receptor ([3H]-raulwolscine, CHO cell membranes); details: [3H]-raulwolscine 1 nM, membranes of CHO cells transfected with human α2A receptor; read-out: pIC50 hα2A (converted)
T1 construct: expressed in transfected cells; host or cells: CHO cells
T1 sequence (P08913 1-465): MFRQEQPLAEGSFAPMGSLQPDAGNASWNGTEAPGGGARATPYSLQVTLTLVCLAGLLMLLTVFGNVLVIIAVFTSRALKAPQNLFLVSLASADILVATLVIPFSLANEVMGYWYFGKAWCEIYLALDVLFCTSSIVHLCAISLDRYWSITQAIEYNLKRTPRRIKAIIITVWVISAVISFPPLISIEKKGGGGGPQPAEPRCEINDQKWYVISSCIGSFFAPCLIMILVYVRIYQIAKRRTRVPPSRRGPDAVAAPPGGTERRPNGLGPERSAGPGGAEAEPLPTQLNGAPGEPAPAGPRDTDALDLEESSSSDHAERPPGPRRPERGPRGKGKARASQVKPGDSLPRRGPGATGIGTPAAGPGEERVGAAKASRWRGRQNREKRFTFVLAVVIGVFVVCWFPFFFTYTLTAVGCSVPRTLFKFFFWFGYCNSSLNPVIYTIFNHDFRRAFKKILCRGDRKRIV
Procedure: (§1) The interaction of the compounds according to Formula (I) with hα2-receptors and h5-HT-transporters was assessed in in vitro radioligand binding experiments. In general, a low concentration of a radioligand with a high binding affinity for a particular receptor or transporter is incubated with a sample of a tissue preparation enriched in a particular receptor or transporter or with a preparation of cells expressing cloned human receptors in a buffered medium. During the incubation, the radioligand binds to the receptor or transporter. When equilibrium of binding is reached, the receptor bound radioactivity is separated from the non-bound radioactivity, and the receptor- or transporter-bound activity is counted. The interaction of the test compounds with the receptor is assessed in competition binding experiments. Various concentrations of the test compound are added to the incubation mixture containing the receptor- or transporter preparation and the radioligand. The test compound in proportion to its binding affinity and its concentration inhibits binding of the radioligand. The radioligand used for hα2A, hα2B and hα2C receptor binding was [^3H]-raulwolscine and for the h5-HT transporter was [^3H]paroxetine.
(§2) CHO cells, stabile transfected with human adrenergic-α2A-, —α2B or α2C receptor cDNA, were cultured in Dulbecco's Modified Eagle's Medium (DMEM)/Nutrient mixture Ham's F12 (ratio 1:1)(Gibco, Gent-Belgium) supplemented with 10% heat inactivated fetal calf serum (Life Technologies, Merelbeke-Belgium) and antibiotics (100 IU/ml penicillin G, 100 μg/ml streptomycin sulphate, 110 μg/ml pyruvic acid and 100 μg/ml L-glutamine). One day before collection, cells were induced with 5 mM sodiumbutyrate. Upon 80-90% of confluence, cells were scraped in phosphate buffered saline without Ca^2+ and Mg^2+ and collected by centrifugation at 1500×g for 10 min. The cells were homogenised in Tris-HCl 50 mM using an Ultraturrax homogenizer and centrifuged for 10 min at 23,500×g. The pellet was washed once by resuspension and rehomogenization and the final pellet was resuspended in Tris-HCl, divided in 1 ml aliquots and stored at −70° C.
(§3) Membranes were thawed and re-homogenized in incubation buffer (glycylglycine 25 mM, pH 8.0). In a total volume of 500 μl, 2-10 μg protein was incubated with [^3H]raulwolscine (NET-722) (New England Nuclear, USA) (1 nM final concentration) with or without competitor for 60 min at 25° C. followed by rapid filtration over GF/B filter using a Filtermate196 harvester (Packard, Meriden, Conn.). Filters were rinsed extensively with ice-cold rinsing buffer (Tris-HCl 50 mM pH 7.4). Filter-bound radioactivity was determined by scintillation counting in a Topcount (Packard, Meriden, Conn.) and results were expressed as counts per minute (cpm). Non-specific binding was determined in the presence of 1 μM oxymetazoline for hα2A- and hα2B receptors and 1 μM spiroxatrine for hα2C receptors.
(§4) Data from assays in the presence of compound were calculated as a percentage of total binding measured in the absence of test compound. Inhibition curves, plotting percent of total binding versus the log value of the concentration of the test compound, were automatically generated, and sigmoidal inhibition curves were fitted using non-linear regression. The pIC50 values of test compounds were derived from individual curves.

hα2B receptor = target: T2, hα2B receptor (Homo sapiens, UniProt P18089); experiment: Radioligand binding experiment for hα2B receptor ([3H]-raulwolscine, CHO cell membranes); details: [3H]-raulwolscine 1 nM, membranes of CHO cells transfected with human α2B receptor; read-out: pIC50 hα2B (converted)
T2 construct: expressed in transfected cells; host or cells: CHO cells
T2 sequence (P18089 1-450): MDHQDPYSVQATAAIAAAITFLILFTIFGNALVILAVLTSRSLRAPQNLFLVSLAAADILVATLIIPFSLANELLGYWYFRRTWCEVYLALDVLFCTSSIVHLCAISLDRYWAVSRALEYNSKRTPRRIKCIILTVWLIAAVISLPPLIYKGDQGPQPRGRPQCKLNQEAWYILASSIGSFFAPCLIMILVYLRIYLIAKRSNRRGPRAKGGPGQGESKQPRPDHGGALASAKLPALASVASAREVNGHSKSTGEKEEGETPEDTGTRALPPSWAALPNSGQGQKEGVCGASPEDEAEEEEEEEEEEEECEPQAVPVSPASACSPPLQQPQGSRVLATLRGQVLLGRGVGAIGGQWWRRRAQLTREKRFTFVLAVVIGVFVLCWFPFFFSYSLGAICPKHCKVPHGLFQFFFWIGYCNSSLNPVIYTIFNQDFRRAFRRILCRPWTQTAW
Procedure: as §1, §2, §3, §4

hα2C receptor = target: T3, hα2C receptor (Homo sapiens, UniProt P18825); experiment: Radioligand binding experiment for hα2C receptor ([3H]-raulwolscine, CHO cell membranes); details: [3H]-raulwolscine 1 nM, membranes of CHO cells transfected with human α2C receptor; read-out: pIC50 hα2C (converted)
T3 construct: expressed in transfected cells; host or cells: CHO cells
T3 sequence (P18825 1-462): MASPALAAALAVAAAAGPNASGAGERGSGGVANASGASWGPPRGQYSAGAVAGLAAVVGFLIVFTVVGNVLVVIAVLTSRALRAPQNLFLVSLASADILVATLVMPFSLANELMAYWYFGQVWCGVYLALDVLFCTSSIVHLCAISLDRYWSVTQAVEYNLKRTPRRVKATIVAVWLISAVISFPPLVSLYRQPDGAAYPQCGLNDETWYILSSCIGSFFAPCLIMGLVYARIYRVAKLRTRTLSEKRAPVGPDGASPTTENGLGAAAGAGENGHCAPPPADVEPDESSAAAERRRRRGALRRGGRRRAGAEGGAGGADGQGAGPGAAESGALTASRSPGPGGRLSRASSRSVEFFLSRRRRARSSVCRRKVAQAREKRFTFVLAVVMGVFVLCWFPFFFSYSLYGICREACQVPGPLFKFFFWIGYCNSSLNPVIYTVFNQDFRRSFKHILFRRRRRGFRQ
Procedure: as §1, §2, §3, §4

h5-HT transporter = target: T4, h5-HT transporter (Homo sapiens, UniProt P31645); experiment: Radioligand binding experiment for 5-HT transporter ([3H]paroxetine, human platelet membranes); details: [3H]paroxetine 0.5 nM, read-out: pIC50 h5HTT (converted)
T4 construct: Human platelet membranes (Oceanix Biosciences Corporation, Hanover, Md., USA) were thawed; tissue Oceanix Biosciences Corporation; host or cells: human platelet membranes
Procedure: as §1
Human platelet membranes (Oceanix Biosciences Corporation, Hanover, Md., USA) were thawed, diluted in buffer (Tris-HCl 50 mM, 120 mM NaCl and 5 mM KCl) and quickly (max 3 s) homogenised with an Ultraturrax homogenizer. In a total volume of 250 μL, 50-100 μg protein was incubated with [^3H]paroxetine (NET-869) (New England Nuclear, USA) (0.5 nM final concentration) with or without competitor for 60 min at 25° C. Incubation was stopped by rapid filtration of the incubation mixture over GF/B filters, pre-wetted with 0.1% polyethyleneamine, using a Filtermate 196 harvester (Packard, Meriden, Conn.). Filters were rinsed extensively with ice-cold buffer and radioactivity on the filters was counted in a Topcount liquid scintillation counter (Packard, Meriden, Conn.). Data were expressed as cpm. Imipramine (at 1 μM final concentration) was used to determine the non-specific binding.
as §4

T4 sequence (P31645 whole entry): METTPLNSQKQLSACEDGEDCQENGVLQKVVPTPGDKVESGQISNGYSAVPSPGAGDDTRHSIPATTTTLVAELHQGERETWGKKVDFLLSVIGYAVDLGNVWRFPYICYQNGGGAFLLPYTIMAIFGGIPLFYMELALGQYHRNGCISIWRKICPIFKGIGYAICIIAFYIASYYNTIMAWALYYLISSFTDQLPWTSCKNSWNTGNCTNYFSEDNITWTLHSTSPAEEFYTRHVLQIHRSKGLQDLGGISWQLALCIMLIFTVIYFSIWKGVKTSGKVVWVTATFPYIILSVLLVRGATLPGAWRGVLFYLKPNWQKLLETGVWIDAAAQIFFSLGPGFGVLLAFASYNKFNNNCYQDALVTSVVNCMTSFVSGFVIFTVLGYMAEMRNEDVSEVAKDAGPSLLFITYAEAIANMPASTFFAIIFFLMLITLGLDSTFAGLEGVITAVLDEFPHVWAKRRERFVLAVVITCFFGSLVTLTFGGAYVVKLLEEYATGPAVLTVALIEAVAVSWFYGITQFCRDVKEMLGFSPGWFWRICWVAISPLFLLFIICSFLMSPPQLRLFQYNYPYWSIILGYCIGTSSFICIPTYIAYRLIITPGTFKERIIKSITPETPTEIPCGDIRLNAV

SMILES: Cc1ccc2c(c1)C1=NOC(CN3CCN(CC=Cc4ccccc4)CC3)C1CO2 (stereo not shown) [Compound 1, 8-Methyl-3-[4-(3-phenyl-allyl)-piperazin-1-ylmethyl]-3a,4-dihydro-3H-chromeno[4,3-c]isoxazole]
- IC50 (hα2A receptor): 3.98 nM
- IC50 (hα2B receptor): 10 nM
- IC50 (hα2C receptor): 15.8 nM
- IC50 (h5-HT transporter): 39.8 nM

SMILES: CC(=Cc1ccccc1)CN1CCN(CC2ON=C3c4ccc(CN(C)CCO)cc4OCC32)CC1 (stereo not shown) [Compound 9, 2-(Methyl-{3-[4-(2-methyl-3-phenyl-allyl)-piperazin-1-ylmethyl]-3a,4-dihydro-3H -chromeno[4,3-c]isoxazol-7-ylmethyl}-amino)-ethanol]
- IC50 (hα2A receptor): 1.26 nM
- IC50 (hα2B receptor): 0.501 nM
- IC50 (hα2C receptor): 0.2 nM
- IC50 (h5-HT transporter): 25.1 nM

SMILES: CC(=Cc1ccccc1)CN1CCN(CC2ON=C3c4ccc(CN(C)CCO)cc4OCC32)CC1 (stereo not shown) (as salt: HCl) [Compound 9, 2-(Methyl-{3-[4-(2-methyl-3-phenyl-allyl)-piperazin-1-ylmethyl]-3a,4-dihydro-3H -chromeno[4,3-c]isoxazol-7-ylmethyl}-amino)-ethanol]
- melting point: 228.6 to 252.1 °C

SMILES: COc1cc2c(cc1CN1CCOCC1)OCC1C2=NOC1CN1CCN(CC(C)=Cc2ccccc2)CC1 (single isomer, unassigned) [Compound 21]
- IC50 (hα2A receptor): 15.8 nM
- IC50 (hα2B receptor): 6.31 nM
- melting point: 56.1 to 68 °C
- IC50 (hα2C receptor): 3.16 nM
- IC50 (h5-HT transporter): 10 nM

SMILES: C/C(=C\c1ccccc1)CN1CCN(CC2ON=C3c4ccc(C#N)cc4OCC32)CC1 (stereo not shown) [Compound 13, 3-[4-(2-Methyl-3-phenyl-allyl)-piperazin-1-ylmethyl]-3a,4-dihydro-3H -chromeno[4,3-c]isoxazole-7-carbonitrile]
- IC50 (hα2A receptor): 1.58 nM
- melting point: 132.2 to 146.7 °C
- IC50 (hα2C receptor): 0.501 nM
- IC50 (h5-HT transporter): 126 nM

SMILES: COc1cc2c(cc1-c1ccc(C(C)=O)s1)OCC1C2=NOC1CN1CCN(CC(C)=Cc2ccccc2)CC1 (stereo not shown) [Compound 18, 1-(5-{8-Methoxy-3-[4-(2-methyl-3-phenyl-allyl)-piperazin-1-ylmethyl]-3a,4-dihydro-3H-chromeno[4,3-c]isoxazol-7-yl}-thiophen-2-yl)-ethanone]
- IC50 (hα2A receptor): 15.8 nM
- melting point: 150.1 to 171.8 °C
- IC50 (hα2C receptor): 10 nM

SMILES: COc1cc2c(cc1CN1CCC(C)CC1)OCC1C2=NOC1CN1CCN(CC(C)=Cc2ccc(F)cc2)CC1 (stereo not shown) [Compound 25]
- IC50 (hα2A receptor): 6.31 nM
- IC50 (hα2B receptor): 2.51 nM
- IC50 (hα2C receptor): 0.794 nM
- IC50 (h5-HT transporter): 31.6 nM

SMILES: COc1cc2c(cc1CN1CCOCC1)OCC1C2=NOC1CN1CCN(CC(C)=Cc2ccccc2)CC1 (single isomer, unassigned) [Compound 20]
- IC50 (hα2A receptor): 398 nM
- IC50 (hα2B receptor): 20 nM
- melting point: 66.5 to 89.8 °C
- IC50 (hα2C receptor): 50.1 nM
- IC50 (h5-HT transporter): 20 nM

SMILES: CCN(Cc1cc2c(cc1OC)C1=NOC(CN3CCN(CC(C)=Cc4ccc(F)cc4)CC3)C1CO2)C(C)C (stereo not shown) [Compound 24]
- IC50 (hα2A receptor): 39.8 nM
- IC50 (hα2B receptor): 12.6 nM
- IC50 (hα2C receptor): 5.01 nM
- IC50 (h5-HT transporter): 3.98 nM
